Data: US6254899A, “Plant extract compositions, method of preparation, and pharmaceutical compositions containing them” (Laboratoires Remilea, priority 1999, dated 2001)

Key:
[1] = Test of anti-inflammatory activity: carragheenin-induced podal edema in rats; type: in vivo, rat (Ico male and female, Sprague Dawley)
Description: 1. Test of Anti-inflammatory Activity
Podal edema induced by carragheenin is used to evaulate the anti-inflammatory activity of the products tested.
The products were tested on Ico male rats and female rats (Sprague Dawley) of approximately 250 g provided by the company IFFA-CREDO.
The products tested were suspended in the hydroxypropyl methyl cellulose (HPMC).
A volume of 5 ml per kg of body weight was administered to the animals by oral route according to the protocol detained in the table below.
Batch Salix Tanacetum Copper Quantity Volume
no. alba parthenium gluconate of excipient administered
Batch / 900 mg / 15.0 ml) 5 ml/kg
The control animals received either the placebo (T+), i.e. solely the HPMC, or indomethacin (T-) by oral route.
The treatment took place two hours before the experiment. One hour after oral administration of the product to be tested, all the animals received 0.2 ml of a 2% solution of carragheenin (Satia) in a 0.9% solution of sodium chloride at by injection in the right back paw (T0).
The podal volume of each rat was measured using a plethysmometer. The podal edema of each animal was measured at times T0, T0 +60 minutes, T0 +120 minutes, T0 +240 minutes.
The results were expressed in average percentages of inflammation relative to the control values (T^+) before the treatment and at each of the measuring times as well as in the percentage reduction of the edema compared to a control before the treatment and against each of the measuring times.

[2] = Test of analgesic activity: phenyl benzoquinone (PBQ) induced abdominal cramps in mice; type: in vivo, mice (male); details: aspirin 100 mg/kg
Description: 50 male mice of 20-24 g supplied by the company IFFA-CREDO (France) were divided into 5 batches. The products studied were administered: by oral route thirty minutes before injection of phenyl benzoquinone (PBQ): (PBQ 20 mg+alcohol 5 ml+water qsp 100 ml). by intraperitoneal route at the rate of 0.20 ml per mouse.
The products to be tested were suspended in the excipient HPMC (hydroxypropyl cellulose methyl).
The animals were treated as below: […]
4. Tanacetum parthenium 150 10 […]
Aspirin was used as the reference analgesic product.
PBQ induces abdominal cramps indicating the intensity of the pain. The number of cramps per mouse was measured 1 hr and 2 hrs after administration of the product tested (30 mn and 1 hr 30 minutes after injection of PBQ).
The results were expressed as the percentage: […]
Number of cramps of the control batch - number of cramps of
Number of cramps of the control batch

COc1ccc2c(c1)c(CC(=O)O)c(C)n2C(=O)c1ccc(Cl)cc1 [Indomethacin]
% change of inflammation compared with the control (T+), 1 hour ([1]; 1 hour, "-" reduction, "+" increase in inflammation): -16.74%
% change of inflammation compared with the control (T+), 2 hours ([1]; 2 hours, "-" reduction, "+" increase in inflammation): -36.7%
% change of inflammation compared with the control (T+), 4 hours ([1]; 4 hours, "-" reduction, "+" increase in inflammation): -50.38%
% inflammation after 1 hour ([1]; oral, 5 ml/kg, 1 hour): 38.34%
% inflammation after 2 hours ([1]; oral, 5 ml/kg, 2 hours): 51.85%
% inflammation after 4 hours ([1]; oral, 5 ml/kg, 4 hours): 71.38%

CC(=O)Oc1ccccc1C(=O)O [aspirin]
Reduction of number of abdominal cramps, 1 hr ([2]; 60 mins after administration, Salix alba 150 mg/kg): 33%
Reduction of number of abdominal cramps, 2 hrs ([2]; 120 mins after administration, Salix alba or Tanacetum parthenium 150 mg/kg): 55%
